From patent publication US9193699B2, “Apoptosis inducing compounds” (INSTITUT NATIONAL DE LA SANTE ET DE LA RECHERCHE MEDICALE …, priority 2011, dated 2015)
Where two headings read alike, the source gives them in different places.

Assays:
[1] = tested on: caspase-3 and caspase-7 in L226 cells; assay: Caspase 3/7 activation (Caspase-Glo 3/7) in L226 tumor cells; type: cell-based; settings: Homo sapiens, R=RLU at 20 μM/RLU at 0 μM, 24 h, read-out: Caspase 3/7 activation R (RLU fold increase from untreated cells)
Procedure: (§1) Human breast tumor L226 cells were plated in a 96 well plate at 10000 cells/100 μL at 37° C. in 5% CO2. Serial dilutions of drugs (compounds 1, 3 or 4) ranging from 20 μM to 300 nM were added at day 0. Active caspase-3 and caspase-7 were measured in triplicate after 24 h treatment by incubating 50 μL of the Caspase-Glo 3/7 reagent for 60 min at 25° C. This reagent containing the proluminescent tetrapeptide sequence DEVD in a cell lysis buffer (Promega) (FIG. 7).
(§2) Caspase 3/7 activation in SUM149 and L226 tumor cells was measured.
(§3) The calculated values R correspond to Relative Luminescence Units (RLU) fold increase from untreated cells (R=RLU at 20 μM/RLU at 0 μM).

[2] = tested on: Human breast tumor SUM149 cells; assay: Inhibition of tumor cell growth (alamar blue), SUM149; type: cell-based; settings: 120 h
Procedure: (§4) All biological experiments (Examples 2 to 9) have been performed with recommended cell line specific culture medium. For SUM149 and L226, culture medium is supplemented with 10% Fetal Calf Serum. For HME-1 and MCF-10A, culture medium is supplemented with 5% Horse Serum.
Human breast tumor SUM149 cells (Inflammatory Breast Cancer (IBC) of basal subtype) were plated in a 96 well plate at 3000 cells/100 μL at 37° C. in 5% CO2. Compounds 1, 3, 4, 5, 6, 7, 8, 9, 10, 11, 12, 13, 14 at 10 μM were added at day 0 and day 3. The number of viable cells was determined in triplicate at day 5 by incubating 10 μL of the alamar blue staining solution for 2 hours at 37° C. (FIG. 1).
(§5) Human breast tumor SUM149 cells were plated in a 96 well plate at 3000 cells/100 μL at 37° C. in 5% CO2. Serial dilutions of drugs (compounds 1, 3 or 4) ranging from 20 μM to 300 nM were added at day 0 and day 3. The number of viable cells was determined in triplicate at day 5 by incubating 10 μL of the alamar blue staining solution for 2 hours at 37° C. (FIG. 2).
IC50 values of compounds 1-14 for the inhibition of SUM149 and L226 tumor cells growth were measured (according to the experimental procedure of Examples 2 and 3):
Human breast tumor SUM149 cells were plated in a 96 well plate at 3000 cells/100 μL at 37° C. in 5% CO2 in recommended medium containing 10% FCS or in synthetic medium without FCS. Serial dilutions of drug (compound 4) ranging from 10 μM to 0.16 μM were added at day 0 and day 3. The number of viable cells was determined in triplicate at day 5 by incubating 10 μL of the alamar blue staining solution for 2 hours at 37° C. (FIG. 11). The […] in recommended medium containing 10% FCS was measured at 2 μM, while it was measured at 0.6 μM without FCS.

[3] = tested on: caspase-3 and caspase-7 in SUM149 cells; assay: Caspase 3/7 activation (Caspase-Glo 3/7) in SUM149 tumor cells; type: cell-based; settings: Homo sapiens, R=RLU at 20 μM/RLU at 0 μM, 24 h, read-out: Caspase 3/7 activation R (RLU fold increase from untreated cells)
Procedure: as §1, with “SUM149” for “L226”, “6).” for “7).”
as §2, §3

[4] = tested on: tumors derived from MMTC-ErbB2/neu mice; assay: TUNEL assay of tumor apoptosis in MMTV-ErB2/Neu mice; type: in vivo; settings: 100 mg/kg for 30 days
Procedure: DNA fragmentation in apoptotic cells was analyzed by the TUNEL assay (ApopTag detection kit, Millipore) as recommended by the manufacturer.
Briefly, 4 μm sections of paraffin-embedded fixed tissue from tumors derived from MMTC-ErbB2/neu mice treated with vehicle or with Compound 12, 4 or 8 (100 mg/kg) for 30 days, were deparaffined with successive histolemon and ethanol washes, then treated with 20 μg/mL proteinase K for 15 min at room temperature. Endogenous peroxidise was quenched with 3% hydrogen peroxide. […] Coloration was performed using the diaminobenzidine mixed substrate (Dako). Counterstaining was done with a solution of 1% methyl green for 5 min at room temperature. After distilled water and N-butanol washes, specimens were mounted in Pertex medium (CellPath). Observations were made using the Leica DMD108 digital microimaging device (Leica Microsystems GmbH).

[5] = tested on: Human normal mammary epithelial HME-1 cells; assay: Effect on growth of normal cells (alamar blue), HME-1; type: cell-based; settings: HME1, calculated on the basis of cell growth inhibition
Procedure: as §4
as §5, with “normal mammary epithelial HME-1” for “breast tumor SUM149”, “4).” for “2).”
IC50 values of compounds 1-14 for the inhibition of MCF-10A and HME-1 normal cells growth were also measured (according to the experimental procedure of Examples 4 and 5): […]

[6] = tested on: Human breast tumor L226 cells; assay: Inhibition of tumor cell growth (alamar blue), L226; type: cell-based; settings: 120 h, calculated on the basis of cell growth inhibition, day 5, alamar blue
Procedure: as §4
Human breast tumor L226 cells (Inflammatory Breast Cancer (IBC) of ERB-B2 subtype) were plated in a 96 well plate at 3000 cells/100 μL at 37° C. in 5% CO2. Serial dilutions of drugs (compounds 1, 3 or 4) ranging from 20 μM to 300 nM were added at day 0 and day 3. The number of viable cells was determined in triplicate at day 5 by incubating 10 μL of the alamar blue staining solution for 2 hours at 37° C. (FIG. 3).
IC50 values of compounds 1-14 for the inhibition of SUM149 and L226 tumor cells growth were measured (according to the experimental procedure of Examples 2 and 3): […]

[7] = calculated on the basis of cell growth inhibition, day 5, alamar blue, read-out: IC50 for the inhibition of SUM149 tumor cells growth

SMILES	fold induction at 20 µM [1]	IC50 [2, 7] [nM]	IC50 ([2]; recommended medium containing 10% FCS, day 5, read-out: IC50 of SUM149 cell growth in recommended medium) [nM]	IC50 ([2]; synthetic medium without FCS, day 5, read-out: IC50 of SUM149 cell growth without FCS) [nM]	fold induction at 20 µM [3]	percentage of cells having TdT positive nuclei in tumors [4] [%]	IC50 [5] [nM]	IC50 [6] [nM]
Cc1cc(C)c(C)c(S(=O)(=O)N2CCSC(C)(C)[C@@H]2C(=O)NO)c1C [Compound 4, (3S)—N-hydroxy-4-[(2,3,5,6-tetramethylphenyl)sulfonyl]-2,2-dimethyl-3-thiomorpholine carboxamide]	7.4	2500	2000	600	4.4	50	> 20000	2500
Cc1c(C)c(C)c(S(=O)(=O)N2CCSC(C)(C)[C@@H]2C(=O)NO)c(C)c1C [Compound 12, (3S)—N-hydroxy-4-[(2,3,4,5,6-pentamethylphenyl)sulfonyl]-2,2-dimethyl-3-thiomorpholine carboxamide]	6.2	2500	–	–	6.8	70	> 20000	2000
